In one assay the test system is IPOHE. As to the kind of experiment: Example V (second) postemergence foliar-applied ternary mixtures, greenhouse, direct seeded rice weeds. In kind it is in vivo, Ipomoea hederacea Jacq. From the text: All stock solutions and applications solutions were visually inspected for compound compatibility prior to application. Spray solutions were applied to the plant material with an overhead Mandel track sprayer equipped with a 8002E nozzles calibrated to deliver 187 L/ha over an application area of 0.503 m^2 at a spray height of 18 inches (46 cm) above average plant canopy height. Control plants were sprayed in the same manner with the solvent blank.
The treated plants and control plants were placed in a greenhouse as described above and watered by sub-irrigation to prevent wash-off of the test compounds. After approximately 3 weeks, the condition of the test plants as compared with that of the untreated plants was determined visually and scored on a scale of 0 to 100 percent where 0 corresponds to no injury or growth inhibition and 100 corresponds to complete kill.
Colby's equation was used to determine the herbicidal effects expected from the mixtures (Colby, S. R. 1967. Calculation of the synergistic and antagonistic response of herbicide combinations. Weeds 15:20-22.).
The following equation was used to calculate the expected activity of mixtures containing three active ingredients, A, B, and C: Expected=A+B+C−((A×B+A×C+B×C)/100)+(A×B×C/10000)

The next assay concerns CYPIR. As to the kind of experiment: Example V post-emergence field trials in direct-seeded rice. The class given is in vivo, Cyperus iria. The conditions noted are these: foliar, field trial Tolima, Colombia. The procedure:
Multiple field trials were conducted under commercial grower field conditions in Tolima, Colombia; Thessaloniki, Greece; Bianze and Copiano, Italy; and Humphrey, Ark., USA. Trials sites were located in commercially grown fields of direct-seeded rice (Oryza sativa) using standard herbicide small plot research methodology. Plots varied from 2 to 3 meter (m)×5 to 8 m (width×length) with 4 replicates per treatment. The rice crop was grown using normal cultural practices for fertilization, seeding, watering, flooding and maintenance to ensure good growth of the crop and the weeds.
All treatments in the field trials were applied using a backpack compressed air/gas sprayer with flat fan nozzles (80° or 110°) calibrated to apply 187 to 300 L/ha spray volume at approximately 200-400 kPa nozzle pressure. Commercially available products of cyhalofop-butyl (Clincher 180EC, Clincher 200EC, and Clincher SF (285 gr ai/L EC)) were mixed in water at appropriate formulated product rates to achieve the desired rates based on a unit area of application (hectare) to achieve the desired rates as shown. Treatments were rate at 19 to 58 days after application (DAA) as compared to the untreated control plants. Visual weed control was scored on a scale of 0 to 100 percent where 0 corresponds to no injury and 100 corresponds to complete kill. […]

For a further assay, the system named is LEFCH. As to the kind of experiment: Example I postemergence foliar-applied, greenhouse, direct seeded rice weeds. In kind it is in vivo, Leptochloa chinensis (L.) Nees. From the text:
Seeds or nutlets of the desired test plant species were planted in a soil matrix prepared by mixing a loam or sandy loam soil (e.g., 28.6 percent silt, 18.8 percent clay, and 52.6 percent sand, with a pH of about 5.8 and an organic matter content of about 1.8 percent) and calcareous grit in an 80 to 20 ratio. The soil matrix was contained in plastic pots with a volume of 1 quart and a surface area of 83.6 square centimeters (cm^2). When required to ensure good germination and healthy plants, a fungicide treatment and/or other chemical or physical treatment was applied. The plants were grown for 8-22 days in a greenhouse with an approximate 14 hr. photoperiod which was maintained at about 29° C. during the day and 26° C. during the night. Nutrients (Peters Excel® 15-5-15 5-Ca 2-Mg and iron chelate) were applied in the irrigation solution as needed and water was added on a regular basis. Supplemental lighting was provided with overhead metal halide 1000-Watt lamps as necessary. The plants were employed for testing when they reached the first through fourth true leaf stage.
Treatments consisted of the acid or esters of 4-amino-3-chloro-5-fluoro-6-(4-chloro-2-fluoro-3-methoxy-phenyl)pyridine-2-carboxylic acid (Compound A), each formulated as an SC (suspension concentrate), and various herbicidal components alone and in combination.
Other herbicidal components were applied on an acid equivalent (ae) or active ingredient (ai) basis and included acetyl coA carboxylase (ACCase)-inhibiting herbicides (cyclohexanedione and aryloxyphenoxypropionate chemical classes) cyhalofop-butyl formulated as Clincher® SF (285 gr ai/L EC), diclofop-methyl formulated as Hoelon® 3EC, fenoxaprop-p-ethyl+isoxadifen-ethyl formulated as RiceStar® HT (0.58 lb./gal EC), fenoxaprop-p-ethyl+mefenpyr diethyl formulated as Puma® IEC, metamifop formulated as Metamifop EC, haloxyfop-methyl formulated as Gallant Super®, fluazifop-p-butyl formulated as Fusilade® DX, quizalofop-p-ethyl formulated as Assure® II, profoxydim formulated as Aura® 20EC, clethodim applied as Intensity®, sethoxydim formulated as Poast®, and tralkoxydim formulated as Achieve®.
Treatment requirements were calculated based upon the rates being tested, the concentration of active ingredient or acid equivalent in the formulation, and a 12 mL application volume at a rate of 187 L/ha.
For treatments comprised of formulated compounds, measured amounts of compounds were placed individually in 25 mL glass vials and diluted in a volume of 1.25% (v/v) Agri-Dex® crop oil concentrated to obtain 12× stock solutions. […] Application solutions were prepared by adding an appropriate amount of each stock solution (e.g., 1 mL) and diluted to the appropriate final concentrations with the addition of 10 mL of an aqueous mixture of 1.25% (v/v) crop oil concentrate so that the final spray solutions contained 1.25+/−0.05% (v/v) crop oil concentrate.
All stock solutions and applications solutions were visually inspected for compound compatibility prior to application. Spray solutions were applied to the plant material with an overhead Mandel track sprayer equipped with a 8002E nozzles calibrated to deliver 187 L/ha over an application area of 0.503 m^2 at a spray height of 18 to 20 inches (46 to 50 cm) above average plant canopy height. Control plants were sprayed in the same manner with the solvent blank.
The treated plants and control plants were placed in a greenhouse as described above and watered by sub-irrigation to prevent wash-off of the test compounds. After approximately 3 weeks, the condition of the test plants as compared with that of the untreated plants was determined visually and scored on a scale of 0 to 100 percent where 0 corresponds to no injury or growth inhibition and 100 corresponds to complete kill. […]

Consider `CCCCOC(=O)[C@@H](C)Oc1ccc(Oc2ccc(C#N)cc2F)cc1` [Cyhalofop-butyl, butyl(2R)-2-[4-(4-cyano-2-fluorophenoxy)phenoxy]propanoate, reference compound], for which, in the assay with IPOHE (Cyhalofop-butyl 35 gai/ha), the “Visual Weed Control (%) - 21 DAA IPOHE Obs” value worked out at 0%. For the same compound, the “Visual Weed Control (%) - 19 DAA CYPIR Obs” value in the assay on CYPIR (280 gai/ha) was found to be 0%.

Consider `CCC/C(=N\OCC(C)Oc1ccc(Cl)cc1)C1=C(O)CC(C2CCCSC2)CC1=O` (stereo not drawn) [Profoxydim, 2-[1-[[2-(4-chlorophenoxy)propoxy]imino]butyl]-3-hydroxy-5-(tetrahydro-2H-thiopyran-3-yl)-2-cyclohexen-1-one, reference compound], for which the “Visual Weed Control (%) - 20 DAA LEFCH Obs” value in the assay with LEFCH (12.5 gai/ha) is given as 0%; in the assay with LEFCH (25 gai/ha), 40%.

For `COc1c(Cl)ccc(-c2nc(C(=O)OCc3ccccc3)c(Cl)c(N)c2F)c1F` [Compound A Benzyl Ester, benzyl ester of 4-amino-3-chloro-5-fluoro-6-(4-chloro-2-fluoro-3-methoxy-phenyl)pyridine-2-carboxylic acid], the “Visual Weed Control (%) - 21 DAA IPOHE Obs” value in the assay with IPOHE (8 gae/ha) came out at 15%; in the assay on IPOHE (16 gae/ha) it was 33%. Also, in the assay with CYPIR (12 gae/ha), the “Visual Weed Control (%) - 19 DAA CYPIR Obs” value is 69%. In addition, the “Visual Weed Control (%) - 20 DAA LEFCH Obs” value in the assay on LEFCH (4.38 gae/ha) was 0%; in the assay on LEFCH (8.75 gae/ha) it was 10%; with LEFCH (17.5 gae/ha) it was 25%. For the same compound, the figures for the “Visual Weed Control (%) - 22 DAA LEFCH Obs” value in the assay on LEFCH (8 gae/ha) and in the assay on LEFCH (16 gae/ha) were 15% and 50%, respectively.

Values taken from patent US9232796B2, “Herbicidal compositions comprising 4-amino-3-chloro-5-fluoro-6-(4-chloro-2-fluoro-3-methoxyphenyl) pyridine-2-carboxylic acid or a derivative thereof and acetyl-CoA carboxylase (ACCase) inhibitors” (DOW AGROSCIENCES LLC, priority 2012, dated 2016).
